Here are results for 18 compounds from patent US6800247B1, “Deactivants for dust mite allergens” (priority 1997, dated 2004).

Format in all cases: biochemical
Assay [1] concerns the target T1, Der-f allergens (Dermatophagoides farinae, UniProt P16311).
T1 construct: Dust is collected from Hoover™ vacuum cleaner bags and passed through a series of sieves down to 63 microns; from tissue; host or cells: house dust from vacuum cleaner bags, sieved to 63 microns
T1 sequence (P16311 99-321): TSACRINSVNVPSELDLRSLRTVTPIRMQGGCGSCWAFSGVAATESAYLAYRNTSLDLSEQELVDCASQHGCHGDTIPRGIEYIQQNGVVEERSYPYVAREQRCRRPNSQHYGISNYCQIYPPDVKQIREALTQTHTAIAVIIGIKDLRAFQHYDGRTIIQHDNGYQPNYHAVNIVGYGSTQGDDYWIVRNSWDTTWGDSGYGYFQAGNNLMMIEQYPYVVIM
The arrangement: Amount of Allergen remaining active after deactivant treatment: unit not given here. How it is done: (§1) The ELISA protocol for Der-f and Der-p has been developed as follows as a measure of denaturing property for denaturants.
(§2) 1. Dust is collected from Hoover™ vacuum cleaner bags and passed through a series of sieves down to 63 microns.
(§3) 2. Clean petri dishes are labelled with the chemical to be tested (on the base). Three replicates are used for each treatment.
(§4) 3. Filter paper is used to line each dish and 0.2 g of dust is added to each dish onto the filter paper. The lid (or base, as dishes are inverted) is replaced and the dish is shaken to disperse the dust evenly over the filter paper.
(§5) 4. 2% aqueous solutions of deactivant were used except for the silver chloride composite where 0.05% was used instead. Immobilised tannic acid was used as a 1% dispersion. The hydrogenerated hop end was used at the 2% level (in the form of a 10% solution). Water-insoluble deactivants were emulsified with a sorbitone oleate surfactant (i.e. Tween). Hinokitol was used at 0.5% not 2%.
(§6) 5. The dust is sprayed with the corresponding treatment, 2 sprays are required for sufficient coverage (1 spray=1.5 ml).
(§7) 6. Leave uncovered at room temperature, in well aerated room, until filter paper is dry. This can take up to 4 hours.
(§8) 7. Empty dust in epindorfs labelled according to treatment.
(§9) 8. Add 1 ml of 5% Bovine Serum Albumen Phosphate Butter Saline—Tween BSA-PBS-T to each epindorf (5 times the weight of dust) (20 ml of BSA-PBS-T=1 g of BSA in 20 ml of PBS-T).
(§10) 9. Leave overnight in a refrigerator.
(§11) 10. Centrifuge for 5 minutes at 13,000 rpm.
(§12) 11. Decant the supernatant into a new epindorf labelled according to treatment.
(§13) 12. Centrifuge again for 5 minutes at 13,000 rpm.
(§14) 13. Make up dilutions of 1:10 and 1:100 by adding 100 μl of neat solution to 900 μl of 1% BSA-PBS-T (1:10). This is repeated using 100 μl of 1:10 dilution and add to 900 μl of 1% BSA-PBS-T for 1:100 dilution.
(§15) ELISA Protocol 2 for Der-f and Der-p: Indoor Biotechnologies
(§16) 1. Prepare samples and dilutions as in protocol
(§17) 2. Prepare 500 ml of 50 mM carbonate/bicarbonate buffer by dissolving 0.795 g Na2CO3 and 1.465 g NaHCO3 in 500 ml of distilled water. Check the pH is at 9.6. (This solution is kept in the refrigerator in a conical flask).
(§18) 11 ml of carbonate/bicarbonate buffer is added to the dispensing tray.
(§19) 11 μl of Der-f1 or Der-p1 monoclonal antibody
(§20) (Stored in freezer, epindorf in use is in the refrigerator) is added to the buffer. To ensure that all the antibody is removed from the tip, wash out the pipette tip by sucking up and down I the buffer solution, gently stirring to mix thoroughly.
(§21) 4. Pipette 100 μl of the antibody solution into each well of the microtiter plate, cover with a plate sealer and leave overnight at 4° C.
(§22) 5. Empty the plate by quickly inverting it over the sink, then dry by banging on a stack of paper towels.
(§23) 6. Add 200 μl of wash buffer to each well: PBS/0/05% tween (PBS-T)
(§24) 7. Repeat stages 5 and 6 once more (making a total of 2 washes).
(§25) 8. Make sure all the wells are dry, then add 100 μl of 1% BSA-PBS-T. Replace the plate sealer and incubate for 1 hour at room temperature*.
(§26) 9. Repeat steps 5 to 7 (2 washes).
(§27) This is mixed thoroughly.
(§28) 11. Add 100 μl aliquots of the allergen sample to the plate along with the standard allergen samples for the reference curve in duplicate. The standards usually go in the first two columns on the left hand side, with the least concentrated on top. Incubate for 1 hour.
(§29) 12. Follow stages 5 to 6, completing a total of 5 washes.
(§30) 13. Pour 11 ml of 1% BSA-PBS-T(0.11 g of BSA to 11 ml of PBS-T) to the dispensing tray. Add 11 μl of the biotinylated monoclonal antibody (refrigerator) and mix thoroughly.
(§31) 14. Pipette 100 μl into each well and incubate for 1 hour at room temperature.
(§32) 15. Empty plate and wash as described in stage 12. (5 washes).
(§33) 16. Add 11 μl of Streptavidin (freezer) to 11 ml of 1%BSA-PBS-T. Pipette 100 μl into each well and incubate for 30 minutes. Reserve any remaining solution in a vial.
(§34) 17. Empty plate and wash as described in stage 12 (5 washes).

In assay [2] the target is T1, Der-f allergens. Conditions: for Ratio of actives remaining after deactivant treatment over those remaining after tannic acid treatment: Examples 48-55, tested as above and compared with tannic acid. How it is done:
as §1, §2, §3, §4, §5, §6, §7, §8, §9, §10, §11, §12, §13, §14, §15, §16, §17, §18, §19, §20, §21, §22, §23, §24, §25, §26, §27, §28, §29, §30, §31, §32, §33, §34

The next assay concerns the target T2, Der-p allergens (Dermatophagoides pteronyssinus, UniProt P08176).
T2 construct: Dust is collected from Hoover™ vacuum cleaner bags and passed through a series of sieves down to 63 microns; from tissue; host or cells: house dust from vacuum cleaner bags, sieved to 63 microns
T2 sequence (P08176 99-320): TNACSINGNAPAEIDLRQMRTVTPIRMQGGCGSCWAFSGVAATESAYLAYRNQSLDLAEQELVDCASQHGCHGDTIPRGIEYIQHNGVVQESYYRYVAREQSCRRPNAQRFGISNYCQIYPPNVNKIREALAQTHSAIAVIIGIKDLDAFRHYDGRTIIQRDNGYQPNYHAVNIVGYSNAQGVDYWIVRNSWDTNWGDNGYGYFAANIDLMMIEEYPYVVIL
Put plainly: Deactivation of Der-p allergens (ELISA protocol), summary statement. The method, then: The test procedure in Examples 1 to 55 is as follows and is known as the ELISA protocol.
as §1, §15, §19

Setting [3] is: Der-f, 0.2 g sieved house dust sprayed with 2% aqueous deactivant (AgCl composite 0.05%, immobilised tannic acid 1%, hinokitol 0.5%).
Setting [4] is: Der-f, compared with vacuuming only, no deactivant, 2% deactivant (AgCl composite 0.05%, immobilised tannic acid 1%, hinokitol 0.5%).

Structures can show the parent of a compound that is named as a salt. Where two headings read alike, the source gives them in different places.

Turning to `CCCOCC(C)O` (centres unmarked) [1-propoxy-propanol-2], the “Ratio of remaining active allergen after Deactivant/Tannic Acid Treatment” value at Der-f allergens [1] was determined as 2.194. Besides, the “Amount of Allergen remaining active after deactivant treatment” value (shortened to “Amount of Allergen remaining active”) at Der-f allergens [1] (setting [3]) came to 3950. The “Amount of active Allergen remaining after deactivant treatment” value (shortened to “Amount of active Allergen remaining”) on Der-f allergens [2] (setting [4]) turned out to be 1233.

For the compound `CCCCC(CC)COC(=O)CC(C(=O)OCC(CC)CCCC)S(=O)(=O)[O-].[Na+]` (centres unmarked) [Aerosol OT], the “Ratio of remaining active allergen after Deactivant/Tannic Acid Treatment” value on Der-f allergens [1] was 1.298. Further, on Der-f allergens [1] (setting [3]), the “Amount of Allergen remaining active” value is recorded as 1525. Further, the “Amount of active Allergen remaining” value at Der-f allergens [2] (setting [4]) was 4494.

As to `N.N.O=S(=O)(O)O` [Ammonium sulphate, ammonium sulphate], on Der-f allergens [1], the “Amount of Allergen remaining active” value was 2750 and the “Ratio of remaining active allergen after Deactivant/Tannic Acid Treatment” value came out at 1.618. For the same compound, the “Amount of active Allergen remaining” value at Der-f allergens [2] was 2325.

Turning to `O=C1c2ccccc2C(=O)c2ccccc21` [Anthraquinone sodium salt, the sodium salt of anthraquinone], the “Ratio of remaining active allergen after Deactivant/Tannic Acid Treatment” value on Der-f allergens [1] is recorded as 0.765. For the same compound, the “Amount of Allergen remaining active” value at Der-f allergens [1] (setting [3]) amounted to 1530.

Consider `N=C(NCCCCCCNC(=N)NC(=N)Nc1ccc(Cl)cc1)NC(=N)Nc1ccc(Cl)cc1` [Chlorohexidine, 1,1′-hexamethylenebis [5-(4-chlorophenyl)]-biguanide], for which the “Ratio of remaining active allergen after Deactivant/Tannic Acid Treatment” value at Der-f allergens [1] was 0.991. In addition, the “Amount of Allergen remaining active” value on Der-f allergens [1] (setting [3]) is 1412.5. For the same compound, the “Amount of active Allergen remaining” value on Der-f allergens [2] (setting [4]) was 2281. On Der-f allergens [2], the “Ratio of actives remaining after deactivant treatment over those remaining after tannic acid treatment” value (shortened to “Ratio of actives remaining”) turned out to be 3.0.

Take `O=C(NCO)N(CO)C1(CO)C(=O)NC(=O)N1CO` (centres unmarked) [Germall II, diazolidinylurea]: the “Ratio of remaining active allergen after Deactivant/Tannic Acid Treatment” value at Der-f allergens [1] was determined as 0.685. Besides, the “Amount of Allergen remaining active” value at Der-f allergens [1] (setting [3]) is on record as 950. The “Ratio of actives remaining” value at Der-f allergens [2] was found to be 1.5.

For the compound `O=CCCCC=O` [Glutaraldehyde, qlutaraldehyde], the “Amount of active Allergen remaining” value on Der-f allergens [2] (setting [4]) is given as 816. In addition, the “Ratio of actives remaining” value on Der-f allergens [2] is on record as 1.5. The “Effectiveness against Der-p allergens” value at Der-p allergens was “effective against Der-p allergens only”.

With `CC(C)c1cccc(=O)c(O)c1` [Hinokitol, β-thujaplicin], on Der-f allergens [1], the “Ratio of remaining active allergen after Deactivant/Tannic Acid Treatment” value amounted to 1.533. For the same compound, at Der-f allergens [1] (setting [3]), the “Amount of Allergen remaining active” value is listed as 3065. Also, the “Amount of active Allergen remaining” value on Der-f allergens [2] (setting [4]) worked out at 2058.

For `O=C1O[C@H]([C@@H](O)CO)C(O)=C1O` [L-Ascorbic Acid, L-ascorbic acid], on Der-f allergens [1], the “Ratio of remaining active allergen after Deactivant/Tannic Acid Treatment” value turned out to be 1.333. Moreover, at Der-f allergens [1] (setting [3]), the “Amount of Allergen remaining active” value is on record as 2000. At Der-f allergens [2] (setting [4]), the “Amount of active Allergen remaining” value was found to be 1438.

For the compound `O=C1C=CC(=O)O1` [Maleic anhydride, maleic anhydride], at Der-f allergens [1], the “Ratio of remaining active allergen after Deactivant/Tannic Acid Treatment” value came out at 0.875. The “Amount of Allergen remaining active” value at Der-f allergens [1] (setting [3]) is listed as 1312.5. For the same compound, the “Amount of active Allergen remaining” value at Der-f allergens [2] (setting [4]) is 783. Further, at Der-f allergens [2], the “Ratio of actives remaining” value was 1.0.

For the compound `CN1CCCC1=O` [N-methyl pyrrolidone, N-methylpyrrolidone], the “Ratio of remaining active allergen after Deactivant/Tannic Acid Treatment” value at Der-f allergens [1] was determined as 1.362. In addition, the “Amount of Allergen remaining active” value at Der-f allergens [1] (setting [3]) is given as 1600. In addition, the “Ratio of actives remaining” value at Der-f allergens [2] is listed as 4.0.

Take `C=CCc1cc(OC)c2c(c1OC)OCO2` [Parsley Camphor]: the “Amount of Allergen remaining active” value on Der-f allergens [1] (setting [3]) came out at 1225. Further, at Der-f allergens [1] (Der-f, ratio below 1 = better than tannic acid), the “Ratio of remaining active allergen after Deactivant/Tannic Acid Treatment” value is 0.883. The “Amount of active Allergen remaining” value on Der-f allergens [2] (setting [4]) came out at 2581.

Regarding `O=C([O-])CS.[K+]` [Potassium thioglycolate, potassium thioglycolate], on Der-f allergens [2] (setting [4]), the “Amount of active Allergen remaining” value is given as 3092. The “Effectiveness against Der-p allergens” value on Der-p allergens is on record as “effective against Der-p allergens only”.

Regarding `Cc1ccc(C(C)C)c(O)c1` [Thymol, 6-isopropyl-m-cresol], at Der-f allergens [1], the “Ratio of remaining active allergen after Deactivant/Tannic Acid Treatment” value is listed as 0.523. In addition, at Der-f allergens [1] (setting [3]), the “Amount of Allergen remaining active” value is recorded as 725. The “Amount of active Allergen remaining” value on Der-f allergens [2] (setting [4]) is 1500. Moreover, the “Ratio of actives remaining” value at Der-f allergens [2] is 4.0.

As for `NC(N)=O` [Urea, urea], the “Ratio of remaining active allergen after Deactivant/Tannic Acid Treatment” value on Der-f allergens [1] is 2.500. The “Amount of Allergen remaining active” value at Der-f allergens [1] (setting [3]) was determined as 3750.

`CCCCCCCCCCCCCCCC[N+](C)(C)C.[Cl-]` [hexadecyltrimethylammonium chloride]: the “Ratio of remaining active allergen after Deactivant/Tannic Acid Treatment” value at Der-f allergens [1] was 2.264. For the same compound, the “Amount of Allergen remaining active” value on Der-f allergens [1] (setting [3]) is reported as 4075. For the same compound, on Der-f allergens [2] (setting [4]), the “Amount of active Allergen remaining” value worked out at 2863.

Turning to aluminium chlorohydrate, at Der-f allergens [1], the “Ratio of remaining active allergen after Deactivant/Tannic Acid Treatment” value amounted to 2.233. For the same compound, the “Amount of Allergen remaining active” value at Der-f allergens [1] (setting [3]) was determined as 1675. Besides, the “Amount of active Allergen remaining” value at Der-f allergens [2] (setting [4]) was found to be 978.

On to cyclodextrin, for which the “Ratio of remaining active allergen after Deactivant/Tannic Acid Treatment” value on Der-f allergens [1] worked out at 2.265. Further, the “Amount of Allergen remaining active” value on Der-f allergens [1] (setting [3]) is recorded as 3850.
